Source: US8247211B2, “Glycopeptide antibiotics” (American Cyanamid Company, priority 2001, dated 2012)
In brackets after ≈: the same amount, converted by molar mass.

Columns and labels:
Experiment in all cases: In vitro antibacterial evaluation: minimum inhibitory concentration (MIC), broth dilution method
Format in all cases: cell-based
Enterococcus sp. = system: Enterococcus sp.
Description: (§1) The minimum inhibitory concentration (MIC), the lowest concentration of the antibiotic which inhibits growth of the test organism, is determined by the broth dilution method using Muller-Hinton II […] (Baltimore Biological Laboratories) following the recommendations of the National Committee for Clinical Laboratory Standards [Methods for dilution antimicrobial susceptibility tests for bacteria that grow aerobically, approved standard M7-A2, National Committee for Clinical Laboratory Standards, Villanova, Pa].
(§2) An inoculum level of 5×10^5 CFU/mL, and a range of antibiotic concentrations (64-0.06 μg/mL) is used. […] The test organisms include a spectrum of Gram-positive bacteria comprised of Staphylococcus sp., Streptococcus sp. and Enterococcus sp. These organisms include recent clinical isolates that are resistant to methicillin, penicillin and/or vancomycin.

Escherichia coli = system: Escherichia coli
Description: as §1, §2

Staphylococcus sp. = conditions: broth dilution, 18 hours at 35° C.
Description: as §1, §2

Streptococcus sp. = system: Streptococcus sp.
Description: as §1, §2

- MIC Enterococcus faecalis (ATCC 29212) (Enterococcus sp.; strain ATCC 29212): 32 µg/mL (≈ 22.6 µM)
- MIC Enterococcus faecalis (GC 2242) (Enterococcus sp.; strain GC 2242): 32 µg/mL (≈ 22.6 µM)
- MIC Enterococcus faecium (GC 2243) (Enterococcus sp.; strain GC 2243): 64 µg/mL (≈ 45.3 µM)
- MIC Enterococcus faecalis (GC 2691) (Enterococcus sp.; strain GC 2691): 32 µg/mL (≈ 22.6 µM)
- MIC Enterococcus faecalis (GC 3059) (Enterococcus sp.; strain GC 3059): 64 µg/mL (≈ 45.3 µM)
- MIC Enterococcus faecalis (GC 4552) (Enterococcus sp.; strain GC 4552): 32 µg/mL (≈ 22.6 µM)
- MIC Enterococcus faecalis (GC 4553) (Enterococcus sp.; strain GC 4553): 32 µg/mL (≈ 22.6 µM)
- MIC Enterococcus faecalis (GC 4554) (Enterococcus sp.; strain GC 4554): 64 µg/mL (≈ 45.3 µM)
- MIC Enterococcus faecium (GC 4556) (Enterococcus sp.; strain GC 4556): 32 µg/mL (≈ 22.6 µM)
- MIC Enterococcus faecium (GC 4557) (Enterococcus sp.; strain GC 4557): 8 µg/mL (≈ 5.66 µM)
- MIC Enterococcus avium (GC 4558) (Enterococcus sp.; strain GC 4558): 32 µg/mL (≈ 22.6 µM)
- MIC Enterococcus faecalis (GC 6189) (Enterococcus sp.; strain GC 6189): 32 µg/mL (≈ 22.6 µM)
- MIC Escherichia coli (ATCC 25922) (Escherichia coli; strain ATCC 25922): >64 µg/mL
- MIC Escherichia coli (GC 4559) (Escherichia coli; strain GC 4559): >64 µg/mL
- MIC Escherichi coli (GC 4560) (Escherichia coli; strain GC 4560): 4 µg/mL (≈ 2.83 µM)
- MIC Coagulase Negative Staphylococcus (GC 4547) (Staphylococcus sp.; 5×10^5 CFU/mL): 8 µg/mL (≈ 5.66 µM)
- MIC Coagulase Negative Staphylococcus (GC 4548) (Staphylococcus sp.; 5×10^5 CFU/mL): 4 µg/mL (≈ 2.83 µM)
- MIC Coagulase Negative Staphylococcus (GC 4549) (Staphylococcus sp.; 5×10^5 CFU/mL): 8 µg/mL (≈ 5.66 µM)
- MIC Coagulase Negative Staphylococcus (GC 4551) (Staphylococcus sp.; 5×10^5 CFU/mL): 8 µg/mL (≈ 5.66 µM)
- MIC Coagulase Negative Staphylococcus (GC 6257) (Staphylococcus sp.; 5×10^5 CFU/mL): 4 µg/mL (≈ 2.83 µM)
- MIC Staphylococcus aureus (ATCC 29213) (Staphylococcus sp.; 5×10^5 CFU/mL): 16 µg/mL (≈ 11.3 µM)
- MIC Staphylococcus aureus (GC 1131) (Staphylococcus sp.; 5×10^5 CFU/mL): 16 µg/mL (≈ 11.3 µM)
- MIC Staphylococcus aureus (GC 3051) (Staphylococcus sp.; 5×10^5 CFU/mL): 16 µg/mL (≈ 11.3 µM)
- MIC Staphylococcus aureus (GC 3053) (Staphylococcus sp.; 5×10^5 CFU/mL): 16 µg/mL (≈ 11.3 µM)
- MIC Staphylococcus aureus (GC 4541) (Staphylococcus sp.; 5×10^5 CFU/mL): 8 µg/mL (≈ 5.66 µM)
- MIC Staphylococcus aureus (GC 4542) (Staphylococcus sp.; 5×10^5 CFU/mL): 16 µg/mL (≈ 11.3 µM)
- MIC Staphylococcus aureus (GC 4544) (Staphylococcus sp.; 5×10^5 CFU/mL): 16 µg/mL (≈ 11.3 µM)
- MIC Staphylococcus aureus (GC 4545) (Staphylococcus sp.; 5×10^5 CFU/mL): 16 µg/mL (≈ 11.3 µM)
- MIC Staphylococcus aureus-SMITH (GC 4543) (Staphylococcus sp.; 5×10^5 CFU/mL): 8 µg/mL (≈ 5.66 µM)
- MIC Staphylococcus aureus (ATCC 29213) (Staphylococcus sp.; strain ATCC 29213): 16 µg/mL (≈ 11.3 µM)
- MIC Staphylococcus aureus (GC 1131) (Staphylococcus sp.; strain GC 1131): 16 µg/mL (≈ 11.3 µM)
- MIC Staphylococcus aureus (GC 3051) (Staphylococcus sp.; strain GC 3051): 16 µg/mL (≈ 11.3 µM)
- MIC Staphylococcus aureus (GC 3053) (Staphylococcus sp.; strain GC 3053): 16 µg/mL (≈ 11.3 µM)
- MIC Staphylococcus aureus (GC 4541) (Staphylococcus sp.; strain GC 4541): 8 µg/mL (≈ 5.66 µM)
- MIC Staphylococcus aureus (GC 4542) (Staphylococcus sp.; strain GC 4542): 16 µg/mL (≈ 11.3 µM)
- MIC Staphylococcus aureus-SMITH (GC 4543) (Staphylococcus sp.; strain GC 4543): 8 µg/mL (≈ 5.66 µM)
- MIC Staphylococcus aureus (GC 4544) (Staphylococcus sp.; strain GC 4544): 16 µg/mL (≈ 11.3 µM)
- MIC Staphylococcus aureus (GC 4545) (Staphylococcus sp.; strain GC 4545): 16 µg/mL (≈ 11.3 µM)
- MIC Coagulase Negative Staphylococcus (GC 4547) (Staphylococcus sp.; strain GC 4547): 8 µg/mL (≈ 5.66 µM)
- MIC Coagulase Negative Staphylococcus (GC 4548) (Staphylococcus sp.; strain GC 4548): 4 µg/mL (≈ 2.83 µM)
- MIC Coagulase Negative Staphylococcus (GC 4549) (Staphylococcus sp.; strain GC 4549): 8 µg/mL (≈ 5.66 µM)
- MIC Coagulase Negative Staphylococcus (GC 4551) (Staphylococcus sp.; strain GC 4551): 8 µg/mL (≈ 5.66 µM)
- MIC Coagulase Negative Staphylococcus (GC 6257) (Staphylococcus sp.; strain GC 6257): 4 µg/mL (≈ 2.83 µM)
- MIC Streptococcus pneumoniae (ATCC 6301) (Streptococcus sp.; strain ATCC 6301): 2 µg/mL (≈ 1.42 µM)
- MIC Streptococcus pneumoniae (GC 1894) (Streptococcus sp.; strain GC 1894): 1 µg/mL (≈ 0.708 µM)
- MIC Streptococcus pyogenes (GC 4563) (Streptococcus sp.; strain GC 4563): 4 µg/mL (≈ 2.83 µM)
- MIC Streptococcus agalactiae (GC 4564) (Streptococcus sp.; strain GC 4564): 4 µg/mL (≈ 2.83 µM)
- MIC Streptococcus pneumoniae (GC 4565) (Streptococcus sp.; strain GC 4565): 2 µg/mL (≈ 1.42 µM)
SMILES: COc1cccc(C2OC3C(OC4C(CO)OC(Oc5ccc(CC6NC(=O)C(C(C)c7ccccc7)NC(=O)CNC(=O)C(CO)NC(=O)C(C(O)C7CNC(=N)N7C7OC(CO)C(O)C(O)C7O)NC(=O)C(C(O)C7CNC(=N)N7)NC6=O)cc5)C(O)C4O)OC(CO)C(O)C3O2)c1 (single isomer, unassigned) [Example 137b, Cyclo[glycyl-β-methylphenylalanyl-O-[4-O-[2,3-O-(3-methoxybenzylidene)hexopyranosyl]-hexopyranosyl]tyrosyl-3-(2-iminoimidazolidin-4-yl)seryl-3-(3-hexopyranosyl-2-iminoimidazolidin-4-yl)serylseryl]]
- MIC Staphylococcus haemolyticus (GC 4546) (Staphylococcus sp.; 5×10^5 CFU/mL): 8 µg/mL (≈ 5.66 µM)
- MIC Staphylococcus haemolyticus (GC 4546) (Staphylococcus sp.; strain GC 4546): 8 µg/mL (≈ 5.66 µM)
